Laboratory results: publication PMC10914731, “Homo-BacPROTAC-induced degradation of ClpC1 as a strategy against drug-resistant mycobacteria” (Nature Communications, 2024)
In brackets after ≈: the same amount, converted by molar mass. Several values for one entry are separate records, joined by “and”; a condition that tells them apart may be missing. Identical values can stand only once. Like-named read-outs stand apart in the source and are kept apart here. Where a SMILES comes first, the peptide text is derived from it. [ ]: non-standard residue; d: D form. NMeLeu(5-OH,4R) = CN[C@@H](C[C@@H](C)CO)C(=O)O; Phe(βR-OMe) = CO[C@H](c1ccccc1)[C@H](N)C(=O)O; Trp(1-Me) = Cn1cc(C[C@H](N)C(=O)O)c2ccccc21; NMeL = CN[C@@H](CC(C)C)C(=O)O; Pra = C#CC[C@H](N)C(=O)O

Legend:
Mycobacterium fortuitum = assay: microbe, parasite or virus in culture; type: cell-based
Mycobacterium avium = assay: microbe, parasite or virus in culture; type: cell-based
[1] = target: His6-tagged ClpC1-NTD substrate, M. smegmatis ClpC1P1P2 (UniProt A0R574+P9WPC9); assay: biochemical; type: biochemical; settings: for % Response: ClpC1-NTD/ClpP1P2 peak area normalized to DMSO, well replicates; for DC50: Msm
His6-tagged ClpC1-NTD substrate, M. smegmatis ClpC1P1P2, sequence (P9WPC9 1-156, looked up, natural form): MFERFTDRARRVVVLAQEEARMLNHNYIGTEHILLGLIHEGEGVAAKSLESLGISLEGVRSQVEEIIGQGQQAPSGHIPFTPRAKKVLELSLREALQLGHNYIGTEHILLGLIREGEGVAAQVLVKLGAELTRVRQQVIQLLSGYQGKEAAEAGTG
His6-tagged ClpC1-NTD substrate, M. smegmatis ClpC1P1P2, sequence (A0R574 whole entry): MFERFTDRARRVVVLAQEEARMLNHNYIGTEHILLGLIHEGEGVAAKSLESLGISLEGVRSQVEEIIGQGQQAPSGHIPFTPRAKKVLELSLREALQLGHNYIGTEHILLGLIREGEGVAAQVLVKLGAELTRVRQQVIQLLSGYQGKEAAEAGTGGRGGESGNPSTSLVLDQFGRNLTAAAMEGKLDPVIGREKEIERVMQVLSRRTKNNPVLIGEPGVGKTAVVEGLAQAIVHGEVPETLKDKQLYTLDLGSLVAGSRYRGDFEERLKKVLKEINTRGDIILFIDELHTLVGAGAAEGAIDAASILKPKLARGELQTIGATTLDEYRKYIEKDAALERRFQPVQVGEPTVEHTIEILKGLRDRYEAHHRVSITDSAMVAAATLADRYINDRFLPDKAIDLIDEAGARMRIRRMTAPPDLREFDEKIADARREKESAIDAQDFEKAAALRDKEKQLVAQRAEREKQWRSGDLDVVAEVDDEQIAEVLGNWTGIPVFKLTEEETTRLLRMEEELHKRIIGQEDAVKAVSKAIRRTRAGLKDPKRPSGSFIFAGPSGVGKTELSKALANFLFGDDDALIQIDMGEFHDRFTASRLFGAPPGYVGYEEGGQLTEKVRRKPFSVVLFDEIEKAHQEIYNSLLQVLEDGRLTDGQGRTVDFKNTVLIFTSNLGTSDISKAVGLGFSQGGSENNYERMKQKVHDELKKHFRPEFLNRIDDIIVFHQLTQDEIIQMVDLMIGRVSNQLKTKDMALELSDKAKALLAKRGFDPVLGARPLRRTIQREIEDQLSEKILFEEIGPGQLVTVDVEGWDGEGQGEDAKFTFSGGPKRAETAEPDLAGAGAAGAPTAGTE

[2] = type: in vitro ADME, Rat
In short: (§1)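 Clearance values are expressed as % of liver blood flow, derived from first-order half-lives using the well-stirred liver model. Depletion of 1 µmol/l compound is followed by HPLC-MS/MS in NADPH-supplemented microsomes (0.5 mg/ml) at 37 °C, pH 7.5.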

Enterobacter cloacae = assay: MIC ESKAPES panel, Enterobacter cloacae; type: cell-based
In short: (§2)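 CLSI broth microdilution was run in Mueller Hinton broth with an inoculum of 3–7 × 10^5 cfu/ml at 37 °C. Turbidity was read on day 2; clear wells indicated growth inhibition.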

[3] = Microsomal stability, human; type: in vitro ADME
In short: as §1

[4] = type: in vitro ADME, Rat; remark: listed apart in the source
Salmonella typhimurium = assay: MIC ESKAPES panel, Salmonella typhimurium; type: cell-based
In short: as §2

Msm 700084 = assay: microbe, parasite or virus in culture; type: cell-based
Acinetobacter baumannii = assay: MIC ESKAPES panel, Acinetobacter baumannii; type: cell-based
In short: as §2

[5] = test system: Mycobacterium intracellulare; assay: microbe, parasite or virus in culture; type: cell-based
[6] = test system: replicating Mtb H37Rv cells; assay: Resazurin growth assay, replicating Mtb H37Rv (Supplementary Fig. 2); type: cell-based, Mycobacterium tuberculosis; settings: three replicate columns
[7] = Experiment 2, three replicate columns
[8] = Gram-Negative Bacteria, replicates 1-3

What does the source list for C#CC[C@@H]1NC(=O)[C@H](CC(C)C)N(C)C(=O)[C@H](C(C)C)NC(=O)[C@H]([C@H](OC)c2ccccc2)NC(=O)[C@H](C)NC(=O)[C@H](C[C@@H](C)CO)N(C)C(=O)[C@H](Cc2cn(C)c3ccccc23)NC1=O [Compound 10] (cyclo(A[Phe(βR-OMe)]V[NMeL][Pra][Trp(1-Me)][NMeLeu(5-OH,4R)]))?
MIC (Mycobacterium fortuitum; Experiment 1, read-out: MIC Mycobacterium fortuitum): 12.5 µM; MIC (µg/ml) Mycobacterium fortuitum (Mycobacterium fortuitum; [7]): 11.41 µg/mL (≈ 12.5 µM); MIC (Mycobacterium fortuitum; Experiment 2, three replicate columns, read-out: MIC (µM) Mycobacterium fortuitum): 12.5 µM; MIC (Mycobacterium fortuitum; Mycolicibacterium fortuitum, Experiment 1, read-out: MIC Mycobacterium fortuitum): 11.4 µg/mL; MIC (Mycobacterium fortuitum; Mycolicibacterium fortuitum, Experiment 2, three replicate columns, read-out: MIC (µM) Mycobacterium fortuitum): 12.5 µM; MIC (Mycobacterium fortuitum; Mycolicibacterium fortuitum, Experiment 2, three replicate columns, read-out: MIC (µg/ml) Mycobacterium fortuitum): 11.4 µg/mL; MIC (Mycobacterium fortuitum; Mycolicibacterium fortuitum, mean ± SD, read-out: MIC Mycobacterium fortuitum): 12.5 µM; MIC (Mycobacterium avium; Experiment 1, read-out: MIC Mycobacterium avium): 12.5 µM; MIC (µg/ml) Mycobacterium avium (Mycobacterium avium; [7]): 11.41 µg/mL (≈ 12.5 µM); MIC (Mycobacterium avium; Experiment 2, three replicate columns, read-out: MIC (µM) Mycobacterium avium): 12.5 µM; MIC (Mycobacterium avium; Mycobacterium avium, Experiment 1, read-out: MIC Mycobacterium avium): 11.4 µg/mL; MIC (Mycobacterium avium; Mycobacterium avium, Experiment 2, three replicate columns, read-out: MIC (µM) Mycobacterium avium): 12.5 µM; MIC (Mycobacterium avium; Mycobacterium avium, Experiment 2, three replicate columns, read-out: MIC (µg/ml) Mycobacterium avium): 11.4 µg/mL; MIC (Mycobacterium avium; Mycobacterium avium, mean ± SD, read-out: MIC Mycobacterium avium): 12.5 µM; % Response ([1]; 0.4 µM): 107.165% and 105.713% and 105.534% and 109.793% and 112.635% and 106.598% and 107.262% and 106.323% and 113.228%; % Response ([1]; 33.3 µM): 86.4131% and 86.1435% and 98.0091% and 93.8962% and 86.1584% and 100.044% and 99.6955% and 103.875% and 103.346%; % Response ([1]; 100.0 µM): 86.569% and 107.836% and 89.4261% and 92.9238% and 99.5573% and 96.5131% and 88.7968% and 92.196% and 104.007%; DC50 ([1]; Measurement 1-6, read-out: DC50, single measurements): > 100 µM; DC50 ([1]; mean of the measurements, read-out: DC50, Mean): > 100 µM; degradation of the His6-tagged ClpC1-NTD substrate ([1]; cell-free, result in words): did not cause any degradation; Microsomal Stability Rat QH ([2]; Rat): 84.600%; Microsomal Stability Rat ([2]; clearance in microsomes): 85 %Qh; MIC (Enterobacter cloacae; Enterobacter cloacae, Gram negative, n = 3 well replicates): > 50 µM; MIC (Enterobacter cloacae; Enterobacter cloacae, Gram-Negative Bacteria, replicates 1-3): > 45.6 mg/L; MIC (Enterobacter cloacae; [8]): >50 µM; Microsomal Stability Human QH ([3]; Human): >88.400%; Microsomal Stability Human ([3]; clearance in microsomes): > 88 %Qh; Hepatocyte Stability Rat QH ([4]; Rat): 69.830%; Hepatocyte Rat ([4]; clearance in hepatocytes): 70 %Qh; MIC (Salmonella typhimurium; [8]): >50 µM; MIC (Salmonella typhimurium; Salmonella enterica, TYPHIMURIUM, Gram negative, n = 3 well replicates): > 50 µM; MIC (Salmonella typhimurium; Salmonella enterica, TYPHIMURIUM, Gram-Negative Bacteria, replicates 1-3): > 45.6 mg/L; MIC (Msm 700084; Mycolicibacterium smegmatis, 700084, single determinations, read-out: Msm 700084 MIC): 25 µM (≈ 22.8 µg/mL); MIC (Msm 700084; Mycolicibacterium smegmatis, 700084, read-out: MIC Msm 700084): 25 µM (≈ 22.8 µg/mL); MIC (Acinetobacter baumannii; Gram negative, n = 3 well replicates, read-out: MIC Acinetobacter baumanii): > 50 µM; MIC (Acinetobacter baumannii; Gram-Negative Bacteria, replicates 1-3, read-out: MIC Acinetobacter baumannii): > 50 µM and > 45.6 µg/mL; MIC ([5]; Experiment 1, read-out: MIC Mycobacterium intracellulare): 12.5 µM; MIC (µg/ml) Mycobacterium intracellulare [5, 7]: 11.41 µg/mL (≈ 12.5 µM); MIC ([5]; Experiment 2, three replicate columns, read-out: MIC (µM) Mycobacterium intracellulare): 12.5 µM; MIC ([5]; Mycobacterium intracellulare, Experiment 1, read-out: MIC Mycobacterium intracellulare): 11.4 µg/mL; MIC ([5]; Mycobacterium intracellulare, Experiment 2, three replicate columns, read-out: MIC (µM) Mycobacterium intracellulare): 12.5 µM; MIC ([5]; Mycobacterium intracellulare, Experiment 2, three replicate columns, read-out: MIC (µg/ml) Mycobacterium intracellulare): 11.4 µg/mL; MIC ([5]; Mycobacterium intracellulare, mean ± SD, read-out: MIC Mycobacterium intracellulare): 12.5 µM; Supplementary Figure 2 dose-response value, replicating H37Rv cells ([6]; Conc. 0.0488281 µM): 96.6607 and 85.0023 and 97.6783; Supplementary Figure 2 dose-response value, replicating H37Rv cells ([6]; Conc. 0.0976562 µM): 91.646 and 99.7213 and 83.381; Supplementary Figure 2 dose-response value, replicating H37Rv cells ([6]; Conc. 0.195312 µM): 93.9637 and 88.7594 and 93.2053; Supplementary Figure 2 dose-response value, replicating H37Rv cells ([6]; Conc. 0.390625 µM): 95.6392 and 103.405 and 93.9985; Supplementary Figure 2 dose-response value, replicating H37Rv cells ([6]; Conc. 0.78125 µM): 94.5519 and 83.8686 and 95.6043; Supplementary Figure 2 dose-response value, replicating H37Rv cells ([6]; Conc. 1.5625 µM): 94.1959 and 100.812 and 95.4766; Supplementary Figure 2 dose-response value, replicating H37Rv cells ([6]; Conc. 3.125 µM): 91.4989 and 87.2697 and 84.1472; Supplementary Figure 2 dose-response value, replicating H37Rv cells ([6]; Conc. 6.25 µM): 90.8682 and 96.9509 and 92.2612; Supplementary Figure 2 dose-response value, replicating H37Rv cells ([6]; Conc. 25 µM): 58.5243 and 57.8085 and 53.4206; Supplementary Figure 2 dose-response value, replicating H37Rv cells ([6]; Conc. 50 µM): 10.7146 and 27.4379 and 10.7068; Supplementary Figure 2 dose-response value, replicating H37Rv cells ([6]; Conc. 100 µM): 10.7533 and 7.29 and 10.5908
